Experimental data reported in patent US8287923B2, “Compositions and methods for treating immune disorders” (priority 2005, dated 2012).

System: NS-SV-AC cells
Test: TNF-α-induced cytotoxicity, MTT assay
Assay type: cell-based, human
Conditions: cells exposed to TNF-α and EGCG in presence of inhibitor
Method: TNF-α cyotoxicity: NS-SV-AC cells (0.5×10<4> cells/well) were seeded in a 96-well microplate and either treated for 24 hr with EGCC as described above (or not treated in the control), in the presence of 100 ng/ml TNFα and 10 μg/ml cyclohexamide. After the treatments, viability was determined by the MTT assay. The cells in each well were washed with 200 μl of phosphate-buffered saline (PBS) and incubated with 100 μl of 2% (w/v) MTT in a solution of 0.05 M Tris-HCl (pH 7.6), 0.5 mM MgCl2, 2.5 mM CoCl2 and 0.25 M disodium succinate at 37° C. for 30 min. Cells were fixed by the addition of 100 μl of 4% (v/v) formalin in 0.2 M Tris-HCl (pH 7.6), and after a 5 min incubation at room temperature liquid was removed and the wells were allowed to dry. Each well was rinsed with 200 μl water and cells were solubilized by the addition of 100 μl of 6.35% (v/v) 0.1 N NaOH in DMSO. The colored formazan product was measured by a Thermo MAX micro plate reader (Molecular Devices Corp. Sunnyvale, Calif.) at a wavelength of 562 nm.
We examined the effects of EGCG on TNF-α-induced cytotoxicity of the human salivary gland acinar cell line NS-SV-AC using the MTT assay.
To examine the role of activation of the p38 signaling pathway in reducing TNF-α-induced cytotoxicity, cells were exposed to TNF-[alpha] and EGCG in the presence of either the p38 MAPK inhibitor SB203580 or the MEK inhibitor PD98059.

SMILES	effect on protection by EGCG against TNF-α-induced loss of cell viability
C[S+]([O-])c1ccc(-c2nc(-c3ccncc3)c(-c3ccc(F)cc3)[nH]2)cc1 (centres unmarked) [SB203580]	significantly reduced the protective effect of EGCG
COc1cccc(-c2cc(=O)c3ccccc3o2)c1N [PD98059]	significantly reduced the protective effect of EGCG
